From PubChem BioAssay AID2060489 (Molecular Pharmacology Branch, DTP, NCI, 2025)

System: 922993-354-T-J3-PDC complex spheroids, viability
Experiment: Anticancer human tumor 922993-354-T-J3-PDC patient-derived endometrial carcinoma cell line growth inhibition [GQUAD]
Conditions: for IC50: curve of first compound; for viability, T/C: stronger effect = lower value
In short: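 Viability of tumor cells grown as complex spheroids with endothelial and stromal cells, exposed to drug combinations. Top concentration at or near clinical Cmax (else 10 microM), diluted in half-log increments.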

[1] = second compound 0.0316 µM, first compound 0.0316 µM
[2] = second compound 0.0316 µM, first compound 0.1 µM
[3] = second compound 0.0316 µM, first compound 0.316 µM
[4] = second compound 0.0316 µM, first compound 1 µM
[5] = second compound 0.0316 µM, first compound 3.16 µM
[6] = second compound 0.0316 µM, first compound 10 µM
[7] = second compound 0.1 µM, first compound 0.0316 µM
[8] = second compound 0.1 µM, first compound 0.1 µM
[9] = second compound 0.1 µM, first compound 0.316 µM
[10] = second compound 0.1 µM, first compound 1 µM
[11] = second compound 0.1 µM, first compound 3.16 µM
[12] = second compound 0.1 µM, first compound 10 µM
[13] = second compound 0.316 µM, first compound 0.0316 µM
[14] = second compound 0.316 µM, first compound 0.1 µM
[15] = second compound 0.316 µM, first compound 0.316 µM
[16] = second compound 0.316 µM, first compound 1 µM
[17] = second compound 0.316 µM, first compound 3.16 µM
[18] = second compound 0.316 µM, first compound 10 µM
[19] = second compound 1 µM, first compound 0.0316 µM
[20] = second compound 1 µM, first compound 0.1 µM
[21] = second compound 1 µM, first compound 0.316 µM
[22] = second compound 1 µM, first compound 1 µM
[23] = second compound 1 µM, first compound 3.16 µM
[24] = second compound 1 µM, first compound 10 µM
[25] = second compound 3.16 µM, first compound 0.0316 µM
[26] = second compound 3.16 µM, first compound 0.1 µM
[27] = second compound 3.16 µM, first compound 0.316 µM
[28] = second compound 3.16 µM, first compound 1 µM
[29] = second compound 3.16 µM, first compound 3.16 µM
[30] = second compound 3.16 µM, first compound 10 µM
[31] = second compound 10 µM, first compound 0.0316 µM
[32] = second compound 10 µM, first compound 0.1 µM
[33] = second compound 10 µM, first compound 0.316 µM
[34] = second compound 10 µM, first compound 1 µM
[35] = second compound 10 µM, first compound 3.16 µM
[36] = second compound 10 µM, first compound 10 µM
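Note: spheroids exposed to compounds for seven days.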
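Throughout, for viability, T/C: 100% = DMSO vehicle control viability.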

With `COc1cccc2c1C(=O)c1c(O)c3c(c(O)c1C2=O)CC(O)(C(=O)CO)CC3OC1CC(N)C(O)C(C)O1` (stereo not drawn) + Cc1[nH]c2ccc(F)cc2c1-c1nc2c3cccnc3c3ncccc3c2[nH]1 the IC50 (second compound 0.0316 µM) was 9.8 µM, the IC50 (second compound 0.1 µM) was > 10 µM and the IC50 (second compound 0.316 µM) was > 10 µM. For the same compound, the IC50 (second compound 1 µM) was > 10 µM, the IC50 (second compound 3.16 µM) was > 10 µM and the IC50 (second compound 10 µM) was 9.33 µM. It also gave a viability, T/C [1] of 120%, a viability, T/C [2] of 114% and a viability, T/C [3] of 99.5%. It also gave a viability, T/C [4] of 83.7%, a viability, T/C [5] of 76.3% and a viability, T/C [6] of 46.1%. For the same compound, the viability, T/C [7] was 118%, the viability, T/C [8] was 96% and the viability, T/C [9] was 86.7%. For the same compound, the viability, T/C [10] was 66.3%, the viability, T/C [11] was 105% and the viability, T/C [12] was 56.1%. For the same compound, the viability, T/C [13] was 96.5%, the viability, T/C [14] was 105% and the viability, T/C [15] was 92.6%. It also gave a viability, T/C [16] of 94.1%, a viability, T/C [17] of 73.2% and a viability, T/C [18] of 56.1%. For the same compound, the viability, T/C [19] was 122%, the viability, T/C [20] was 91.4% and the viability, T/C [21] was 72.3%. For the same compound, the viability, T/C [22] was 80.1%, the viability, T/C [23] was 81.3% and the viability, T/C [24] was 53.8%. For the same compound, the viability, T/C [25] was 120%, the viability, T/C [26] was 73.8% and the viability, T/C [27] was 71.4%. The viability, T/C [28] was 88.7%, the viability, T/C [29] was 74.6% and the viability, T/C [30] was 46.9%. For the same compound, the viability, T/C [31] was 97.2%, the viability, T/C [32] was 81.8% and the viability, T/C [33] was 89%. The viability, T/C [34] was 98.4%, the viability, T/C [35] was 103% and the viability, T/C [36] was 47.1%.

With `Cc1cccc(N(C)C(=O)C2C(O)CCN2c2nc(C)cc(C(F)(F)F)c2C#N)c1` (stereo not drawn) + Cc1[nH]c2ccc(F)cc2c1-c1nc2c3cccnc3c3ncccc3c2[nH]1 the IC50 (second compound 0.0316 µM) was > 10 µM, the IC50 (second compound 0.1 µM) was > 10 µM and the IC50 (second compound 0.316 µM) was > 10 µM. The IC50 (second compound 1 µM) was > 10 µM, the IC50 (second compound 3.16 µM) was > 10 µM and the IC50 (second compound 10 µM) was > 10 µM. It also gave a viability, T/C [1] of 111%, a viability, T/C [2] of 112% and a viability, T/C [3] of 80.8%. It also gave a viability, T/C [4] of 94%, a viability, T/C [5] of 120% and a viability, T/C [6] of 82.9%. For the same compound, the viability, T/C [7] was 108%, the viability, T/C [8] was 122% and the viability, T/C [9] was 97.7%. The viability, T/C [10] was 135%, the viability, T/C [11] was 120% and the viability, T/C [12] was 126%. The viability, T/C [13] was 90.7%, the viability, T/C [14] was 112% and the viability, T/C [15] was 74.7%. The viability, T/C [16] was 104%, the viability, T/C [17] was 87.9% and the viability, T/C [18] was 99.3%. For the same compound, the viability, T/C [19] was 112%, the viability, T/C [20] was 96.5% and the viability, T/C [21] was 104%. For the same compound, the viability, T/C [22] was 114%, the viability, T/C [23] was 102% and the viability, T/C [24] was 97.3%. It also gave a viability, T/C [25] of 123%, a viability, T/C [26] of 121% and a viability, T/C [27] of 103%. It also gave a viability, T/C [28] of 96.9%, a viability, T/C [29] of 129% and a viability, T/C [30] of 73.8%. It also gave a viability, T/C [31] of 87%, a viability, T/C [32] of 94.3% and a viability, T/C [33] of 109%. The viability, T/C [34] was 111%, the viability, T/C [35] was 95.4% and the viability, T/C [36] was 123%.

For `Cn1ncnc1[C@H]1c2n[nH]c(=O)c3cc(F)cc(c23)N[C@@H]1c1ccc(F)cc1` + Cc1[nH]c2ccc(F)cc2c1-c1nc2c3cccnc3c3ncccc3c2[nH]1, the IC50 (second compound 0.0316 µM) was > 0.316 µM, the IC50 (second compound 0.1 µM) was > 0.316 µM and the IC50 (second compound 0.316 µM) was > 0.316 µM. For the same compound, the IC50 (second compound 1 µM) was > 0.316 µM, the IC50 (second compound 3.16 µM) was > 0.316 µM and the IC50 (second compound 10 µM) was > 0.316 µM. It also gave a viability, T/C (second compound 0.0316 µM, first compound 0.000999 µM) of 102%, a viability, T/C (second compound 0.0316 µM, first compound 0.00316 µM) of 100% and a viability, T/C (second compound 0.0316 µM, first compound 0.00999 µM) of 83.8%. It also gave a viability, T/C [1] of 88%, a viability, T/C (second compound 0.0316 µM, first compound 0.0999 µM) of 85% and a viability, T/C [3] of 61.5%. It also gave a viability, T/C (second compound 0.1 µM, first compound 0.000999 µM) of 92.4%, a viability, T/C (second compound 0.1 µM, first compound 0.00316 µM) of 85.4% and a viability, T/C (second compound 0.1 µM, first compound 0.00999 µM) of 80.8%. For the same compound, the viability, T/C [7] was 97.5%, the viability, T/C (second compound 0.1 µM, first compound 0.0999 µM) was 80.1% and the viability, T/C [9] was 54.1%. It also gave a viability, T/C (second compound 0.316 µM, first compound 0.000999 µM) of 100%, a viability, T/C (second compound 0.316 µM, first compound 0.00316 µM) of 98.6% and a viability, T/C (second compound 0.316 µM, first compound 0.00999 µM) of 108%. It also gave a viability, T/C [13] of 111%, a viability, T/C (second compound 0.316 µM, first compound 0.0999 µM) of 122% and a viability, T/C [15] of 64.9%. For the same compound, the viability, T/C (second compound 1 µM, first compound 0.000999 µM) was 110%, the viability, T/C (second compound 1 µM, first compound 0.00316 µM) was 82.8% and the viability, T/C (second compound 1 µM, first compound 0.00999 µM) was 100%. For the same compound, the viability, T/C [19] was 97.1%, the viability, T/C (second compound 1 µM, first compound 0.0999 µM) was 93.3% and the viability, T/C [21] was 69.6%. The viability, T/C (second compound 3.16 µM, first compound 0.000999 µM) was 118%, the viability, T/C (second compound 3.16 µM, first compound 0.00316 µM) was 92.6% and the viability, T/C (second compound 3.16 µM, first compound 0.00999 µM) was 106%. It also gave a viability, T/C [25] of 84.2%, a viability, T/C (second compound 3.16 µM, first compound 0.0999 µM) of 94.9% and a viability, T/C [27] of 70.6%. The viability, T/C (second compound 10 µM, first compound 0.000999 µM) was 111%, the viability, T/C (second compound 10 µM, first compound 0.00316 µM) was 93% and the viability, T/C (second compound 10 µM, first compound 0.00999 µM) was 119%. For the same compound, the viability, T/C [31] was 112%, the viability, T/C (second compound 10 µM, first compound 0.0999 µM) was 75% and the viability, T/C [33] was 81.9%.

For `O=C(c1cc(Cc2n[nH]c(=O)c3ccccc23)ccc1F)N1CCN(C(=O)C2CC2)CC1` + Cc1[nH]c2ccc(F)cc2c1-c1nc2c3cccnc3c3ncccc3c2[nH]1, the IC50 (second compound 0.0316 µM) was > 10 µM, the IC50 (second compound 0.1 µM) was > 10 µM and the IC50 (second compound 0.316 µM) was > 10 µM. The IC50 (second compound 1 µM) was > 10 µM, the IC50 (second compound 3.16 µM) was > 10 µM and the IC50 (second compound 10 µM) was > 10 µM. The viability, T/C [1] was 107%, the viability, T/C [2] was 113% and the viability, T/C [3] was 98.3%. For the same compound, the viability, T/C [4] was 102%, the viability, T/C [5] was 89.5% and the viability, T/C [6] was 81.1%. For the same compound, the viability, T/C [7] was 108%, the viability, T/C [8] was 119% and the viability, T/C [9] was 88.3%. For the same compound, the viability, T/C [10] was 99.5%, the viability, T/C [11] was 124% and the viability, T/C [12] was 95.5%. The viability, T/C [13] was 93%, the viability, T/C [14] was 90% and the viability, T/C [15] was 72.6%. For the same compound, the viability, T/C [16] was 115%, the viability, T/C [17] was 102% and the viability, T/C [18] was 118%. The viability, T/C [19] was 91.5%, the viability, T/C [20] was 100% and the viability, T/C [21] was 108%. The viability, T/C [22] was 92.3%, the viability, T/C [23] was 92% and the viability, T/C [24] was 68.3%. The viability, T/C [25] was 81.1%, the viability, T/C [26] was 98.3% and the viability, T/C [27] was 89.7%. The viability, T/C [28] was 88.1%, the viability, T/C [29] was 97.9% and the viability, T/C [30] was 88.8%. The viability, T/C [31] was 106%, the viability, T/C [32] was 110% and the viability, T/C [33] was 88.2%. For the same compound, the viability, T/C [34] was 80.2%, the viability, T/C [35] was 101% and the viability, T/C [36] was 83.7%.
